Test results taken from US8883763B2 (Universite Joseph Fourier, priority 2010, dated 2014).

Experiments:
[1] = system: HMEC cells; experiment: Proliferation of HMEC cells (GI50); format: cell-based; details: Homo sapiens, 120 h, 50 μM to 1 nM for 5 days
Method in brief: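 Cells seeded at 1,000/well (10% confluence) and exposed 5 days (120 h) to compound from 1 nM up to 50–100 μM. Live cells counted by Hoechst 33342 staining under fluorescence microscopy; GI50 is concentration halving proliferation versus control, mean of two triplicate experiments.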

[2] = target: T1, PP1α (PP1CA) (Oryctolagus cuniculus, UniProt P62139); experiment: Protein phosphatase test (PP1 activity, DiFMUP fluorescent substrate); format: biochemical; details: PP1CA at 80 mU, fluorescent substrate (50 μM), molecules from 50 μM to 50 nM; read-out: PP1 Inhibition IC50
T1 construct: purchased New England Biolabs P0754
Method in brief: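 PP1α (30 or 80 mU) in 100 mM Tris-HCl pH 7.5, 4 mM DTT, 0.2 mM EDTA, 0.5 mM MnCl2 was preincubated 15 min with compound (50 μM to 50 nM), then given 60 μM DiFMUP for 20 min at 37 °C. Phosphatase activity was read as fluorescence at 355-460 nm, three times in duplicate.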

[3] = system: human tumours (HTB-177: pulmonary carcinoma) xenografted onto nude mice; experiment: HTB-177 tumour xenograft in nude mice, necrosis and histology; format: in vivo
Protocol: All the animal experiments were carried out according to the recommendations of the local ethics commmittee. Nude mice (NCr-nu/nu females (Harlan Laboratories), were housed in a room with filtered air at 22° C., alternating 12 hours of day and 12 hours of night.
HTB177 cells (1×10^6) were implanted sub-cutaneously in the flanks of the mice. The tumour growth was monitored twice weekly by measuring the size of the tumours with a slide caliper, thus making it possible to estimate the volume of the tumour, calculated in mm^3 according to the following formula: length×width×height×π/6.
Treatment commenced when the tumours reached a size of approximately 250 mm^3. The weight of the animal, the volume of the tumour and the extension of the necroses were measured twice weekly.
The animals were sacrificed when the tumour reached 2000 mm^3 or sooner if a clinical sign of suffering, defined by the ethics committee, was observed.
The mice received compound 6 per os in doses and at intervals described in the captions to the figures. The control mice received the vehicle alone (identical volume of beta-cyclodextrin at 60 mg/ml))
After euthanasia of the animals, the tumours were removed, cut sagittally along the median line, frozen rapidly in nitrogen liquid and stored at −80° C. […]

T1 sequence (P62139 whole entry): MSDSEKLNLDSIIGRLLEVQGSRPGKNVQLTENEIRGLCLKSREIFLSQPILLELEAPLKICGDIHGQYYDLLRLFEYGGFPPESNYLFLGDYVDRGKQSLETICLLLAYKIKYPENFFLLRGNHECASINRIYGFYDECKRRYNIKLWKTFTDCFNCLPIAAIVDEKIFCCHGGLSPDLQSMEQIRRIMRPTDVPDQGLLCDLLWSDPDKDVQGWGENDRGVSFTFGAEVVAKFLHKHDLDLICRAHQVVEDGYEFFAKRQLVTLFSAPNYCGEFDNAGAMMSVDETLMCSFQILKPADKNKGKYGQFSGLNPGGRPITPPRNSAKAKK

COc1ccc(-c2[nH]c(=O)c3cc(OC)ccc3c2[N+](=O)[O-])cc1 [Compound 6, 7-methoxy-3-(4-methoxyphenyl)-4-nitroisoquinoline-1(2H)-one]
GI50 [1]: ≤ 100 nM | IC50 [2]: ≤ 9 µM | tumour necrosis (macroscopic) ([3]; 40 mg/kg twice weekly per os, after one cycle of administration (day 7)): central necrosis | necrosis on H&E-stained tumour sections ([3]; 48 hours after administration of 40 mg/kg): extensive areas of necrosis
